Source: patent US20160022684A1, “BET INHIBITOR AND BRUTON'S TYROSINE KINASE INHIBITOR COMBINATIONS” (Pharmacyclics LLC, priority 2014, published 2016)

What was measured:
SU-DHL-2 = assay: Combined drug treatment cell viability (CellTiter-Glo), ibrutinib with BET inhibitors, SU-DHL-2; assay type: cell-based; settings: JQ1 100 nM, OTX015 1 uM (Table 2) or medium alone (row), 3 days
Method: (§1) The DLBCL cell lines used during the experiments included TMD8, OCI-LY3, OCI-LY10, U-2932 and SU-DHL-2. DLBCL cells at either 1×10^4 cells or 2×10^4 cells were plated onto each well of a 96-W plate (Table 1). […] The 96-W plate was then incubated for 3 days. Cell viability was examined using a CellTiter-Glo assay. A 40 μL of CellTiter-Glo reagent was added directly into each well of the 96-W plate. The plate was then shaken on a Shaker ([…]) at speed 5 for 10-20 min at room temperature. Next, about 100 μL of the mixed medium was transferred to a white, non-transparent, flat bottom 96-W plate for assaying. […] Measurements were taken at room temperature. CellTiter-Glow reagents were thawed prior to use. Cells pre-plated onto a second 96-W plate and incubated at room temperature for 30 minutes were used for calibration purposes. […] CI is a quantitative description of the interaction property of the combination of two drugs.

OCI-LY3 = assay: Combined drug treatment cell viability (CellTiter-Glo), ibrutinib with BET inhibitors, OCI-LY3; assay type: cell-based; settings: OCI-LY-3, JQ1 1 uM, OTX015 1 uM or medium alone (row), 3 days
Method: as §1

[1] = system: activated B-cell like (ABC) subtype of DLBCL; settings: patients with ABC subtype of DLBCL; cited from earlier work
U-2932 = assay: Combined drug treatment cell viability (CellTiter-Glo), ibrutinib with BET inhibitors, U-2932; assay type: cell-based; settings: U2932, JQ1 20 nM, OTX015 50 nM (Table 2) or medium alone (row), 3 days
Method: as §1

TMD8 = assay: Combined drug treatment cell viability (CellTiter-Glo), ibrutinib with BET inhibitors, TMD8; assay type: cell-based; settings: JQ1 20 nM, OTX015 100 nM or medium alone (row), 3 days
Method: as §1

OCI-LY10 = assay: Combined drug treatment cell viability (CellTiter-Glo), ibrutinib with BET inhibitors, OCI-LY10; assay type: cell-based; settings: OCI-LY-10, JQ1 1 uM, OTX015 1 uM or medium alone (row), 3 days
Method: as §1

[2] = ibrutinib 0.0256 nM with I-BET151 5 uM
[3] = ibrutinib 0.64 nM with I-BET151 5 uM
[4] = ibrutinib 3.2 nM with I-BET151 5 uM
[5] = ibrutinib 16 nM with I-BET151 5 uM
[6] = ibrutinib 80 nM with I-BET151 5 uM
[7] = ibrutinib 400 nM with I-BET151 5 uM
[8] = ibrutinib 2000 nM with I-BET151 5 uM
[9] = ibrutinib 10000 nM with I-BET151 5 uM
[10] = ibrutinib […] with I-BET151 5 uM
[11] = ibrutinib 0.0256 nM with I-BET151 200 nM
[12] = ibrutinib 0.64 nM with I-BET151 200 nM
[13] = ibrutinib 3.2 nM with I-BET151 200 nM
[14] = ibrutinib 16 nM with I-BET151 200 nM
[15] = ibrutinib 80 nM with I-BET151 200 nM
[16] = ibrutinib 400 nM with I-BET151 200 nM
[17] = ibrutinib 2000 nM with I-BET151 200 nM
[18] = ibrutinib 10000 nM with I-BET151 200 nM
[19] = ibrutinib […] with I-BET151 200 nM

**Q.** For C=CC(=O)N1CCC[C@@H](n2nc(-c3ccc(Oc4ccccc4)cc3)c3c(N)ncnc32)C1 [ibrutinib, 1-((R)-3-(4-amino-3-(4-phenoxyphenyl)-1H-pyrazolo[3,4-d]pyrimidin-1-yl)piperidin-1-yl)prop-2-en-1-one], which luminescent signals (SU-DHL-2; ibrutinib 0.0256 nM with I-BET151 2 uM) is on record?
**A.** Its luminescent signals is 141202.

**Q.** What about the luminescent signals (SU-DHL-2; ibrutinib 0.64 nM with I-BET151 2 uM) of the same compound?
**A.** The luminescent signals was 159399.

**Q.** And the luminescent signals (SU-DHL-2; ibrutinib 3.2 nM with I-BET151 2 uM)?
**A.** Its luminescent signals is 161613.5.

**Q.** What about the luminescent signals (SU-DHL-2; ibrutinib 16 nM with I-BET151 2 uM) of the same compound?
**A.** The luminescent signals was 155353.5.

**Q.** And the luminescent signals (SU-DHL-2; ibrutinib 80 nM with I-BET151 2 uM)?
**A.** Its luminescent signals is 164140.7.

**Q.** What about the luminescent signals (SU-DHL-2; ibrutinib 400 nM with I-BET151 2 uM) of the same compound?
**A.** The luminescent signals was 159908.6.

**Q.** And the luminescent signals (SU-DHL-2; ibrutinib 2000 nM with I-BET151 2 uM)?
**A.** Its luminescent signals is 154426.1.

**Q.** What about the luminescent signals (SU-DHL-2; ibrutinib 10000 nM with I-BET151 2 uM) of the same compound?
**A.** The luminescent signals was 111485.8.

**Q.** And the luminescent signals (SU-DHL-2; ibrutinib […] with I-BET151 2 uM)?
**A.** Its luminescent signals is 146159.1.

**Q.** What about the luminescent signals (OCI-LY3; [2]) of the same compound?
**A.** The luminescent signals was 63957.7.

**Q.** What about the luminescent signals (OCI-LY3; [3]) of the same compound?
**A.** The luminescent signals was 63322.7.

**Q.** And the luminescent signals (OCI-LY3; [4])?
**A.** Its luminescent signals is 66789.02.

**Q.** What about the luminescent signals (OCI-LY3; [5]) of the same compound?
**A.** Its luminescent signals is 64655.7.

**Q.** What about the luminescent signals (OCI-LY3; [6]) of the same compound?
**A.** Its luminescent signals is 68972.2.

**Q.** And the luminescent signals (OCI-LY3; [7])?
**A.** The luminescent signals was 64472.02.

**Q.** And the luminescent signals (OCI-LY3; [8])?
**A.** Its luminescent signals is 55749.79.

**Q.** What about the luminescent signals (OCI-LY3; [9]) of the same compound?
**A.** The luminescent signals was 63477.51.

**Q.** What about the luminescent signals (OCI-LY3; [10]) of the same compound?
**A.** The luminescent signals was 59441.78.

**Q.** And the overall response rate [1]?
**A.** Its overall response rate is 41%.

**Q.** What about the overall survival [1] of the same compound?
**A.** The overall survival was 9.7 month.

**Q.** What about the luminescent signals (U-2932; [11]) of the same compound?
**A.** The luminescent signals was 63123.8.

**Q.** And the luminescent signals (U-2932; [12])?
**A.** Its luminescent signals is 53722.16.

**Q.** What about the luminescent signals (U-2932; [13]) of the same compound?
**A.** Its luminescent signals is 53031.79.

**Q.** What about the luminescent signals (U-2932; [14]) of the same compound?
**A.** The luminescent signals was 51023.93.

**Q.** What about the luminescent signals (U-2932; [15]) of the same compound?
**A.** Its luminescent signals is 49777.58.

**Q.** And the luminescent signals (U-2932; [16])?
**A.** Its luminescent signals is 46009.54.

**Q.** And the luminescent signals (U-2932; [17])?
**A.** The luminescent signals was 46858.01.

**Q.** And the luminescent signals (U-2932; [18])?
**A.** The luminescent signals was 37935.94.

**Q.** And the luminescent signals (U-2932; [19])?
**A.** Its luminescent signals is 57150.28.

**Q.** And the luminescent signals (TMD8; [11])?
**A.** Its luminescent signals is 32496.06.

**Q.** And the luminescent signals (TMD8; [12])?
**A.** The luminescent signals was 29180.29.

**Q.** What about the luminescent signals (TMD8; [13]) of the same compound?
**A.** Its luminescent signals is 31383.77.

**Q.** What about the luminescent signals (TMD8; [14]) of the same compound?
**A.** Its luminescent signals is 27190.31.

**Q.** And the luminescent signals (TMD8; [15])?
**A.** The luminescent signals was 28263.05.

**Q.** And the luminescent signals (TMD8; [16])?
**A.** The luminescent signals was 25674.76.

**Q.** And the luminescent signals (TMD8; [17])?
**A.** Its luminescent signals is 23421.2.

**Q.** What about the luminescent signals (TMD8; [18]) of the same compound?
**A.** The luminescent signals was 10819.72.

**Q.** What about the luminescent signals (TMD8; [19]) of the same compound?
**A.** Its luminescent signals is 32828.16.

**Q.** And the luminescent signals (OCI-LY10; [2])?
**A.** Its luminescent signals is 61548.88.

**Q.** What about the luminescent signals (OCI-LY10; [3]) of the same compound?
**A.** The luminescent signals was 63983.91.

**Q.** And the luminescent signals (OCI-LY10; [4])?
**A.** Its luminescent signals is 51190.81.

**Q.** What about the luminescent signals (OCI-LY10; [5]) of the same compound?
**A.** Its luminescent signals is 27324.38.

**Q.** And the luminescent signals (OCI-LY10; [6])?
**A.** The luminescent signals was 23511.43.

**Q.** What about the luminescent signals (OCI-LY10; [7]) of the same compound?
**A.** Its luminescent signals is 23784.91.

**Q.** What about the luminescent signals (OCI-LY10; [8]) of the same compound?
**A.** Its luminescent signals is 24452.84.

**Q.** And the luminescent signals (OCI-LY10; [9])?
**A.** Its luminescent signals is 24826.24.

**Q.** What about the luminescent signals (OCI-LY10; [10]) of the same compound?
**A.** Its luminescent signals is 68196.56.
